Consider two compounds from patent publication US9199997B2, “Purinone derivative hydrochloride” (ONO PHARMACEUTICAL CO., LTD., priority 2011, dated 2015).

The structures appear in SMILES notation. Converted amounts (≈) assume the structure as drawn.

What is called solubility is the concentration that dissolves in the medium under given conditions.

A short description of one data set: Blood kinetics in dogs. Type of data set: in vivo. Conditions: male, beagle, dog, plasma; solubilized solution (WellSolve), oral gavage 1 mg/kg vs intravenous 1 mg/kg, fasted dogs; read-out: bioavailability (BA). How it is done:
The kinetic profiles of compound A and the salt thereof (the compound prepared in Example 9) in blood were evaluated in male beagle dogs under fasting conditions. […] For the intravenous and oral solution administrations, a solubilized solution of Compound A dissolved in WellSolve (Celeste Inc.) heated to 60° C. was used. Using the solubilized solutions, doses of 1 mg/1 mL/kg were rapidly administered intravenously with a syringe via a forelimb cephalic vein, and doses of 1 mg/5 mL/kg were administered by gavage using a catheter. […] The concentration of Compound A in the plasma was measured by LC/MS/MS (UPLC/Xevo, Waters). The area under the curve (AUC, ng·h/mL), maximum concentration (Cmax, μg/mL) and clearance (CL, mL/hr/kg) were calculated from the plasma concentration. The bioavailability (BA) of Compound A was calculated from the AUC of the oral dose and the AUC of the intravenous dose.
Moreover, for the oral suspension administration a liquid was prepared by finely pulverizing Compound A and suspending the particles in an aqueous solution of 0.5% methylcellulose, and then administering doses of 3 and 10 mg/kg in the same manner as the forced oral administration by gavage described above. […] The BA values for each administration method and at each concentration were calculated as relative BA by assigning the BA of Compound A in the solubilized solution a value of 100%.

A short description of data set [1]: Measurement of solubility (HPLC). The data set is classed as physicochemical. Conditions: thermodynamic from solid; for solubility at 30 min: after 30 min; for solubility at 24 h: after 24 h. How it is done: <HPLC Measurement Conditions>
Device: HPLC 1100series, Agilent
Column: YMC-Pack ODS-AM AM-302 (4.6 mm ID×150 mm long)
Column temperature: 25° C.
Mobile phase: 20 mM potassium phosphate monobasic (pH 3.0)/acetonitrile (60:40, isocratic)
Sample rack temperature: 25° C.
Sample injection volume: 10 μL

[2] abbreviates: FaSSIF (artificial intestinal fluid), FaSSIF (pH 6.5).
Where [3] appears, read: FeSSIF (artificial intestinal fluid), FeSSIF (pH 6.5).
The mark [4] stands for this setting: Japanese Pharmacopoeia dissolution test I liquid, simulated gastric fluid, JP dissolution test I liquid (pH 1.2).
Where [5] appears, read: Japanese Pharmacopoeia dissolution test II liquid, aqueous buffer, JP dissolution test II liquid (pH 6.8).
Setting [6] is: diluted McIlvaine buffer, aqueous buffer, Dilute McIlvaine buffer (pH 4.0).
[7] abbreviates: diluted McIlvaine buffer, aqueous buffer, Dilute McIlvaine buffer (pH 7.4).

With `CC#CC(=O)N1CC[C@@H](n2c(=O)n(-c3ccc(Oc4ccccc4)cc3)c3c(N)ncnc32)C1` [Compound A, 6-amino-9-[(3R)-1-(2-butynoyl)-3-pyrrolidinyl]-7-(4-phenoxyphenyl)-7,9-dihydro-8H-purin-8-one], the bioavailability in “Blood kinetics in dogs” was found to be 115%. For the same compound, the solubility at 30 min in data set [1] (setting [2]) was 35 µg/mL (≈ 77 µM); in data set [1] (setting [3]) it was 67 µg/mL (≈ 147 µM); in data set [1] (setting [4]), 550 µg/mL (≈ 1210 µM); in data set [1] (setting [5]), 31 µg/mL (≈ 68.2 µM); in data set [1] (setting [6]), 30 µg/mL (≈ 66 µM); in data set [1] (setting [7]), 29 µg/mL (≈ 63.8 µM). In data set [1] (Purified water), this compound showed a solubility at 30 min of 32 µg/mL (≈ 70.4 µM). Besides, the solubility at 24 h in data set [1] (setting [2]) is 36 µg/mL (≈ 79.2 µM); in data set [1] (setting [3]), 84 µg/mL (≈ 185 µM); in data set [1] (setting [4]) it was 717 µg/mL (≈ 1580 µM); in data set [1] (setting [5]) it was 32 µg/mL (≈ 70.4 µM); in data set [1] (setting [6]), 34 µg/mL (≈ 74.8 µM); in data set [1] (setting [7]) it was 29 µg/mL (≈ 63.8 µM). In data set [1] (Purified water), this compound came in with a solubility at 24 h of 34 µg/mL (≈ 74.8 µM).
On to `CC#CC(=O)N1CC[C@@H](n2c(=O)n(-c3ccc(Oc4ccccc4)cc3)c3c(N)ncnc32)C1.Cl` [Example 9, 6-amino-9-[(3R)-1-(2-butynoyl)-3-pyrrolidinyl]-7-(4-phenoxyphenyl)-7,9-dihydro-8H-purin-8-one hydrochloride], for which the solubility at 30 min was 145 µg/mL in data set [1] (setting [2]); 356 µg/mL in data set [1] (setting [3]); 1220 µg/mL in data set [1] (setting [4]); 112 µg/mL in data set [1] (setting [5]); 125 µg/mL in data set [1] (setting [6]); 103 µg/mL in data set [1] (setting [7]). Further, the solubility at 30 min in data set [1] (Purified water) stood at 130 µg/mL. The solubility at 24 h in data set [1] (setting [2]) was 118 µg/mL; in data set [1] (setting [3]), 301 µg/mL; in data set [1] (setting [4]) it was 1210 µg/mL; in data set [1] (setting [5]), 111 µg/mL; in data set [1] (setting [6]), 117 µg/mL; in data set [1] (setting [7]) it was 106 µg/mL. Besides, the solubility at 24 h in data set [1] (Purified water) worked out at 144 µg/mL.
